Laboratory results published in PubChem BioAssay (NCI).
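In this assay, cells in 96-well plates receive the compound at five concentrations for 48 hours. Endpoints are linearly interpolated between the surrounding concentrations. At the GI50, growth is halved. TGI: total growth inhibition.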

Legend:
Experiment in all cases: NCI tumour cell line growth inhibition, 48 h
HCC-2998 colon = tested on: HCC-2998 colon
A549 NSCLC = tested on: A549 NSCLC
HCT-15 colon = tested on: HCT-15 colon
HOP-92 NSCLC = tested on: HOP-92 NSCLC
SN12C renal = tested on: SN12C renal
CAKI-1 renal = tested on: CAKI-1 renal
UO-31 renal = tested on: UO-31 renal
NCI-H226 lung = tested on: NCI-H226 lung
KM12 colon = tested on: KM12 colon
M14 melanoma = tested on: M14 melanoma
EKVX NSCLC = tested on: EKVX NSCLC
OVCAR-5 ovarian = tested on: OVCAR-5 ovarian
IGROV1 ovarian = tested on: IGROV1 ovarian
MCF7 breast = tested on: MCF7 breast
NCI-H460 lung = tested on: NCI-H460 lung
MOLT-4 leukemia = tested on: MOLT-4 leukemia
NCI/ADR-RES ovarian = tested on: NCI/ADR-RES ovarian
K-562 leukemia = tested on: K-562 leukemia
HS 578T breast = tested on: HS 578T breast
DU-145 prostate = tested on: DU-145 prostate
OVCAR-4 ovarian = tested on: OVCAR-4 ovarian
CCRF-CEM leukemia = tested on: CCRF-CEM leukemia
OVCAR-8 ovarian = tested on: OVCAR-8 ovarian
SF-295 CNS = tested on: SF-295 CNS
BT-549 breast = tested on: BT-549 breast
SNB-19 CNS = tested on: SNB-19 CNS
SK-MEL-2 melanoma = tested on: SK-MEL-2 melanoma
HCT-116 colon = tested on: HCT-116 colon

`O=C(N/N=C/c1ccc(Br)s1)c1[nH]c2ccc(Br)cc2c1-c1ccccc1` was tested, and the GI50 (HCC-2998 colon) was 1040 nM, the TGI (HCC-2998 colon) was > 47400 nM and the GI50 (A549 NSCLC) was 1010 nM. The TGI (A549 NSCLC) was > 44000 nM, the GI50 (HCT-15 colon) was 934 nM and the TGI (HCT-15 colon) was > 36200 nM. For the same compound, the GI50 (HOP-92 NSCLC) was 462 nM, the TGI (HOP-92 NSCLC) was > 69100 nM and the GI50 (SN12C renal) was 547 nM. For the same compound, the TGI (SN12C renal) was > 38200 nM, the GI50 (CAKI-1 renal) was 1240 nM and the TGI (CAKI-1 renal) was > 39000 nM. For the same compound, the GI50 (UO-31 renal) was 1400 nM, the TGI (UO-31 renal) was > 100000 nM and the GI50 (NCI-H226 lung) was 826 nM. The TGI (NCI-H226 lung) was > 37000 nM, the GI50 (KM12 colon) was 1180 nM and the TGI (KM12 colon) was > 79600 nM. The GI50 (M14 melanoma) was 1030 nM, the TGI (M14 melanoma) was > 100000 nM and the GI50 (EKVX NSCLC) was 4920 nM. The TGI (EKVX NSCLC) was > 100000 nM, the GI50 (OVCAR-5 ovarian) was 863 nM and the TGI (OVCAR-5 ovarian) was > 86100 nM. The GI50 (IGROV1 ovarian) was 983 nM, the TGI (IGROV1 ovarian) was > 39100 nM and the GI50 (MCF7 breast) was 852 nM. For the same compound, the TGI (MCF7 breast) was > 34500 nM, the GI50 (NCI-H460 lung) was 762 nM and the TGI (NCI-H460 lung) was 8090 nM. It also gave a GI50 (MOLT-4 leukemia) of 203 nM, a TGI (MOLT-4 leukemia) of 38900 nM and a GI50 (NCI/ADR-RES ovarian) of 131 nM. The TGI (NCI/ADR-RES ovarian) was 7110 nM, the GI50 (K-562 leukemia) was 327 nM and the TGI (K-562 leukemia) was > 100000 nM. For the same compound, the GI50 (HS 578T breast) was 791 nM, the TGI (HS 578T breast) was 41900 nM and the GI50 (DU-145 prostate) was 700 nM. For the same compound, the TGI (DU-145 prostate) was > 59800 nM, the GI50 (OVCAR-4 ovarian) was 1210 nM and the TGI (OVCAR-4 ovarian) was > 53000 nM. For the same compound, the GI50 (CCRF-CEM leukemia) was 370 nM, the TGI (CCRF-CEM leukemia) was > 100000 nM and the GI50 (OVCAR-8 ovarian) was 296 nM. The TGI (OVCAR-8 ovarian) was 1820 nM, the GI50 (SF-295 CNS) was 907 nM and the TGI (SF-295 CNS) was 11000 nM. The GI50 (BT-549 breast) was 738 nM, the TGI (BT-549 breast) was 2160 nM and the GI50 (SNB-19 CNS) was 1070 nM. For the same compound, the TGI (SNB-19 CNS) was > 95700 nM, the GI50 (SK-MEL-2 melanoma) was 710 nM and the TGI (SK-MEL-2 melanoma) was > 50400 nM. The GI50 (HCT-116 colon) was 282 nM and the TGI (HCT-116 colon) was > 100000 nM.
